Experimental data from patent publication US12516044B2, “Heterocyclic compounds as immunomodulators” (Incyte Corporation, priority 2015, dated 2026).

Molecular target: T1, PD-1/PD-L1 protein/protein interaction (Homo sapiens, UniProt Q9NZQ7)
T1 construct: Recombinant human PD-L1 protein (19-238) with a His-tag at the C-terminus; purchased AcroBiosystems PD1-H5229 (PD-L1-His); PD1-H5257 (PD-1-Fc)
Test: PD-1/PD-L1 Homogeneous Time-Resolved Fluorescence (HTRF) Binding Assay
Conditions: recombinant human PD-L1 (19-238) His-tag and human PD-1 (25-167) Fc tag; 25° C., PBS pH 7.4
Description: Example A. PD-1/PD-L1 Homogeneous Time-Resolved Fluorescence (HTRF) Binding Assay
The assays were conducted in a standard black 384-well polystyrene plate with a final volume of 20 μL. Inhibitors were first serially diluted in DMSO and then added to the plate wells before the addition of other reaction components. The final concentration of DMSO in the assay was 1%. The assays were carried out at 25° C. in the PBS buffer (pH 7.4) with 0.05% Tween-20 and 0.1% BSA. Recombinant human PD-L1 protein (19-238) with a His-tag at the C-terminus was purchased from AcroBiosystems (PD1-H5229). Recombinant human PD-1 protein (25-167) with Fc tag at the C-terminus was also purchased from AcroBiosystems (PD1-H5257). PD-L1 and PD-1 proteins were diluted in the assay buffer and 10 μL was added to the plate well. Plates were centrifuged and proteins were preincubated with inhibitors for 40 minutes. The incubation was followed by the addition of […] of HTRF detection buffer supplemented with Europium cryptate-labeled anti-human IgG (PerkinElmer-AD0212) specific for Fc and anti-His antibody conjugated to SureLight®-Allophycocyanin (APC, PerkinElmer-AD0059H). After centrifugation, the plate was incubated at 25° C. for 60 min. before reading on a PHERAstar FS plate reader (665 nm/620 nm ratio). Final concentrations in the assay were […] PD1, 10 nM PD-L1, 1 nM europium anti-human IgG and 20 nM anti-His-Allophycocyanin. IC50 determination was performed by fitting the curve of percent control activity versus the log of the inhibitor concentration using the GraphPad Prism 5.0 software.

T1 sequence (Q9NZQ7 19-238): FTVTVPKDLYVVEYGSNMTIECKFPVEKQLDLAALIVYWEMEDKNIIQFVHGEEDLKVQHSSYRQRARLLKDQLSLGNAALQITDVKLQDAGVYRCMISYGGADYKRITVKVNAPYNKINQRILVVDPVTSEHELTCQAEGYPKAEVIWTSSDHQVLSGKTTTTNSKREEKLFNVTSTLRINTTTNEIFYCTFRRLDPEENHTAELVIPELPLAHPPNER

| Compound | IC50 [nM] |
| --- | --- |
| Cc1c(NC(=O)c2ccc(CN3CCCC[C@H]3C(=O)O)cn2)cccc1-c1ccccc1 [Example 1, (2S)-1-[(6-{[(2-methylbiphenyl-3-yl)amino]carbonyl}pyridin-3-yl)methyl]piperidine-2-carboxylic Acid] | 10 to 100 |
| Cc1cc(CN2CCCC[C@H]2C(=O)O)cnc1C(=O)Nc1cccc(-c2ccccc2)c1C [Example 3, (2S)-1-[(5-methyl-6-{[(2-methylbiphenyl-3-yl)amino]carbonyl}pyridin-3-yl)methyl]piperidine-2-carboxylic Acid] | 100 to 1000 |
| Cc1cnc(C(=O)Nc2cccc(-c3ccccc3)c2C)cc1CNCCO [Example 37, 4-{[(2-hydroxyethyl)amino]methyl}-5-methyl-N-(2-methylbiphenyl-3-yl)pyridine-2-carboxamide] | 10 to 100 |
| Cc1c(NC(=O)c2ncc(CNCCO)cc2Cl)cccc1-c1ccccc1 [Example 16, 3-chloro-5-{[(2-hydroxyethyl)amino]methyl}-N-(2-methylbiphenyl-3-yl)pyridine-2-carboxamide] | 10 to 100 |
| Cn1cc2ccc(-c3cccc(NC(=O)c4ccc(CNCCO)cn4)c3C#N)cc2n1 [Example 48, N-[2-cyano-3-(2-methyl-2H-indazol-6-yl)phenyl]-5-{[(2-hydroxyethyl)amino]methyl}pyridine-2-carboxamide] | 10 to 100 |
| Cc1cc(C(=O)Nc2cccc(-c3ccccc3)c2C)ncc1CNCCO [Example 33, 5-{[(2-hydroxyethyl)amino]methyl}-4-methyl-N-(2-methylbiphenyl-3-yl)pyridine-2-carboxamide] | ≤ 10 |
| Cc1c(NC(=O)c2cnc(CNCCO)cn2)cccc1-c1ccccc1 [Example 11, 5-{[(2-hydroxyethyl)amino]methyl}-N-(2-methylbiphenyl-3-yl)pyrazine-2-carboxamide] | 10 to 100 |
| CN1CCOc2cc(-c3cccc(NC(=O)c4ccc(CNCCO)cn4)c3C#N)ccc21 [Example 46, N-[2-cyano-3-(4-methyl-3,4-dihydro-2H-1,4-benzoxazin-7-yl)phenyl]-5-{[(2-hydroxyethyl)amino]methyl}pyridine-2-carboxamide] | 100 to 1000 |
| Cc1cc(CNCCO)cnc1C(=O)Nc1cccc(-c2ccccc2)c1C [Example 4, 5-{[(2-hydroxyethyl)amino]methyl}-3-methyl-N-(2-methylbiphenyl-3-yl)pyridine-2-carboxamide] | 10 to 100 |
| Cc1c(NC(=O)c2cccnn2)cccc1-c1ccccc1 [Example 29, N-(2-methylbiphenyl-3-yl)pyridazine-3-carboxamide] | 100 to 1000 |
| Cc1cnc(C(=O)Nc2cccc(-c3ccccc3)c2C)cc1CN1CCCC[C@H]1C(=O)O [Example 36, (2S)-1-[(5-methyl-2-{[(2-methylbiphenyl-3-yl)amino]carbonyl}pyridin-4-yl)methyl]piperidine-2-carboxylic Acid] | 10 to 100 |
| Cc1c(NC(=O)c2cc(CNCCO)ccn2)cccc1-c1ccccc1 [Example 23, 4-{[(2-hydroxyethyl)amino]methyl}-N-(2-methylbiphenyl-3-yl)pyridine-2-carboxamide] | 10 to 100 |
| Cc1c(NC(=O)c2cc(C#N)ccn2)cccc1-c1ccccc1 [Example 25, 4-cyano-N-(2-methylbiphenyl-3-yl)pyridine-2-carboxamide] | 10 to 100 |
| Cc1c(NC(=O)c2ncc(CN3CCCC[C@H]3C(=O)O)cn2)cccc1-c1ccccc1 [Example 5, (2S)-1-[(2-{[(2-methylbiphenyl-3-yl)amino]carbonyl}pyrimidin-5-yl)methyl]piperidine-2-carboxylic Acid] | 100 to 1000 |
| N#Cc1c(NC(=O)c2ccc(CNCCO)cn2)cccc1C1=CCCCC1 [Example 38, N-(2-cyano-3-cyclohex-1-en-1-ylphenyl)-5-{[(2-hydroxyethyl)amino]methyl} pyridine-2-carboxamide] | ≤ 10 |
| Cc1c(NC(=O)c2cnccn2)cccc1-c1ccccc1 [Example 26, N-(2-methylbiphenyl-3-yl)pyrazine-2-carboxamide] | 10 to 100 |
| Cc1c(NC(=O)c2cc(OCc3cccc(C#N)c3)c(CNCCO)cn2)cccc1-c1ccccc1 [Example 18, 4-[(3-cyanobenzyl)oxy]-5-{[(2-hydroxyethyl)amino]methyl}-N-(2-methylbiphenyl-3-yl)pyridine-2-carboxamide] | 10 to 100 |

| Compound | IC50 [nM] |
| --- | --- |
| N#Cc1c(NC(=O)c2ccc(CNCCO)cn2)cccc1-c1ccccc1 [Example 8, N-(2-cyanobiphenyl-3-yl)-5-{[(2-hydroxyethyl)amino]methyl}pyridine-2-carboxamide] | ≤ 10 |
| Cc1nc(C(=O)Nc2cccc(-c3ccccc3)c2C)ccc1CN1CCCC[C@H]1C(=O)O [Example 13, (2S)-1-[(2-methyl-6-{[(2-methylbiphenyl-3-yl)amino]carbonyl}pyridin-3-yl)methyl]piperidine-2-carboxylic Acid] | 100 to 1000 |
| Cc1c(NC(=O)c2cc(OCc3cccnc3)ncn2)cccc1-c1ccccc1 [Example 24, N-(2-methylbiphenyl-3-yl)-6-(pyridin-3-ylmethoxy)pyrimidine-4-carboxamide] | 100 to 1000 |
| Cc1c(NC(=O)c2ccncn2)cccc1-c1ccccc1 [Example 27, N-(2-methylbiphenyl-3-yl)pyrimidine-4-carboxamide] | 10 to 100 |
| N#Cc1c(NC(=O)c2ccc(CN3CCCC[C@H]3C(=O)O)cn2)cccc1-c1ccc2c(c1)OCCO2 [Example 9, (2S)-1-{[6-({[2-cyano-3-(2,3-dihydro-1,4-benzodioxin-6-yl)phenyl]amino}carbonyl)pyridin-3-yl]methyl}piperidine-2-carboxylic Acid] | 10 to 100 |
| Cc1c(NC(=O)c2cc(OCc3ccccn3)c(CNCCO)cn2)cccc1-c1ccccc1 [Example 20, 5-{[(2-hydroxyethyl)amino]methyl}-N-(2-methylbiphenyl-3-yl)-4-(pyridin-2-ylmethoxy)pyridine-2-carboxamide] | 10 to 100 |
| Cc1c(NC(=O)c2cc(OCc3cccnc3)c(CNCCO)cn2)cccc1-c1ccccc1 [Example 19, 5-{[(2-hydroxyethyl)amino]methyl}-N-(2-methylbiphenyl-3-yl)-4-(pyridin-3-ylmethoxy)pyridine-2-carboxamide] | 10 to 100 |
| Cc1nc(C(=O)Nc2cccc(-c3ccccc3)c2C)ccc1CNCCO [Example 14, 5-{[(2-hydroxyethyl)amino]methyl}-6-methyl-N-(2-methylbiphenyl-3-yl)pyridine-2-carboxamide] | 10 to 100 |
| Cc1c(NC(=O)c2ncc(CNCCO)cc2N(C)C)cccc1-c1ccccc1 [Example 21, 3-(dimethylamino)-5-{[(2-hydroxyethyl)amino]methyl}-N-(2-methylbiphenyl-3-yl)pyridine-2-carboxamide] | 100 to 1000 |
| N#Cc1c(NC(=O)c2ccc(CNCCO)cn2)cccc1N1CCCCC1 [Example 39, N-(2-cyano-3-piperidin-1-ylphenyl)-5-{[(2-hydroxyethyl)amino]methyl}pyridine-2-carboxamide] | > 1000 |
| N#Cc1c(NC(=O)c2ccc(CNCCO)cn2)cccc1C1=COCCC1 [Example 44, N-[2-cyano-3-(3,4-dihydro-2H-pyran-5-yl)phenyl]-5-{[(2-hydroxyethyl)amino]methyl}pyridine-2-carboxamide] | 10 to 100 |
| Cc1c(NC(=O)c2ncccn2)cccc1-c1ccccc1 [Example 28, N-(2-methylbiphenyl-3-yl)pyrimidine-2-carboxamide] | 100 to 1000 |
| Cc1c(NC(=O)c2cc(-c3ccncc3)c(CNCCO)cn2)cccc1-c1ccccc1 [Example 31, 5-{[(2-hydroxyethyl)amino]methyl}-N-(2-methylbiphenyl-3-yl)-4,4′-bipyridine-2-carboxamide] | 10 to 100 |
| Cc1c(NC(=O)c2cc(OCC3CC3)c(CNCCO)cn2)cccc1-c1ccccc1 [Example 34, 4-(cyclopropylmethoxy)-5-((2-hydroxyethylamino)methyl)-N-(2-methylbiphenyl-3-yl)picolinamide] | 10 to 100 |
| Cc1c(NC(=O)c2ncc(CN3CCCC[C@H]3C(=O)O)cc2Cl)cccc1-c1ccccc1 [Example 15, (2S)-1-[(5-chloro-6-{[(2-methylbiphenyl-3-yl)amino]carbonyl}pyridin-3-yl)methyl]piperidine-2-carboxylic Acid] | 100 to 1000 |
| N#Cc1c(NC(=O)c2ccc(CNCCO)cn2)cccc1C1CCCCC1 [Example 41, N-(2-cyano-3-cyclohexylphenyl)-5-{[(2-hydroxyethyl)amino]methyl}pyridine-2-carboxamide] | 10 to 100 |
